Test results published in article PMC10620091 (Nature, 2023).

T1: SpSLC9C1 (Strongylocentrotus purpuratus, UniProt A3RL54)
T1 construct: gene SLC9C1; ITC and nanoDSF: isolated CTD (S946–E1193: helix E', CNBD and β-CTD); cryo-EM: full-length SpSLC9C1 in lipid nanodiscs
T1 sequence (A3RL54 946-1193): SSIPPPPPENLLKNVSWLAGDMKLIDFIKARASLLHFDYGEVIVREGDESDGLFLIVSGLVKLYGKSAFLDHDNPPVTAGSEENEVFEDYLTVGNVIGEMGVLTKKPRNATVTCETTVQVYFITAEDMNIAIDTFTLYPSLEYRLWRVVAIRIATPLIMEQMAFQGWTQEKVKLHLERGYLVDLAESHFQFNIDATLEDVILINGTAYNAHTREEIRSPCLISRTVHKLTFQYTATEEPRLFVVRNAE


Experiments:
[1] = biological target: T1, SpSLC9C1; test: ITC (isolated CTD), nanoDSF ([…] °C shift), cryo-EM structure; type: binding
[2] = biological target: the molecule itself; test: cryo-EM structure; ligand-free SpSLC9C1 in MSP 2N2 / soy polar lipid nanodiscs, pH 7.6, 150 mM Na+ (20 mM HEPES pH 7.6, 150 mM NaCl); C2 symmetry imposed on the final dimer map

| Molecule | Kd [1] | stoichiometry N [2] |
| --- | --- | --- |
| Nc1nc2c(ncn2[C@@H]2O[C@@H]3COP(=O)(O)O[C@H]3[C@H]2O)c(=O)[nH]1 [cGMP] | 9.3 µM |  |
| SpSLC9C1 (sperm-specific Na+/H+ exchanger SLC9C1 from the sea urchin Strongylocentrotus purpuratus) (natural protein, UniProt A3RL54 30-1325, looked up, SpSLC9C1, Strongylocentrotus purpuratus, UniProt A3RL54, gene codon-optimized for mammalian cells; full-length protein; the first 70 N-terminal residues are not resolved in the maps; C-terminal HRV-3C cleavage site followed by Venus, myc and SBP tags; the tags were cleaved off with HRV-3C, so residues of the cleavage site may remain at the C-terminus; Homodimer by cryo-EM; also called full-length …) SSGGSGHTPTTQATHADDHDLTTHNGTEEHDDGHDDGHDDLHAHAPKVIVFISGSCLFGAISRSLFKKLPIPYTVVLLILGAILGVVASNVPLVEEHTRDVAHMDPHVLLQIFLPVLIFESAFAMDVHTFMRSFSQVCILALFGLVVASVLTAVLAMNLFNYNWNFSEAMMFGAIMSATDPVAVVALLKDLGASKQLGTIIEGESLLNDGCAIVIFNVFMKMVFFPQLTSTVGQNVLYFLQVAVAGPLWGYAVAKVTVFFLSHIFNDALVEITITLAATYLTYYIGDIWLEVSGVLAVVVLGLIVNAEKTSISPEVEVFLHRFWEMLAYLANTLIFMMVGVVVTQKALVAVDKMDWFYLIILYLAITIIRGMVISLFSPILSRIGYGLTWRNAVIMTWGGLRGAVGLALALVVENLAGNDVIGSKFLFHTAGIVVLTLVINATTIQTLLRILGMSDISIPKRLAMAGAVRRIHEGQNRTLNMLKSDRFLADADWDIATAACEISDPYSALSDDENAPADELTLGERKSVCPGCKAMVPNEPSPREFADMMEEARLRMLKAEKISYWKQFEHGMLAREALRLLVQHAEVAADEKDQFILVDDLKKSWQIKGIYPWLKRKLEDLISEKKIAAIPMPKYKLGKLMYKICHHMAFEVTINIAIVLNIVPIIMEFVVQDKMASVSTMAAPGSTVSSEPSSLQKIEDALRISNYVFFVIYAIEAIVKILGLGRHYIVSHWNKFDAFILVVALVDIIIAETLLKGSITINLSSIKVVKLFRLLRGLRMLRLTKALIPKLILVVNGKINNQLSLGYDVGKGYIIGEEEVGKIIDRMVDNKKILRELKHISETGRLQVVKELGLLQREHPGIAVSVKTRQAIRTILNHSRETIHELQGAGLLDEMEAHKLELTVEIKMKRLMNAPSSIPPPPPENLLKNVSWLAGDMKLIDFIKARASLLHFDYGEVIVREGDESDGLFLIVSGLVKLYGKSAFLDHDNPPVTAGSEENEVFEDYLTVGNVIGEMGVLTKKPRNATVTCETTVQVYFITAEDMNIAIDTFTLYPSLEYRLWRVVAIRIATPLIMEQMAFQGWTQEKVKLHLERGYLVDLAESHFQFNIDATLEDVILINGTAYNAHTREEIRSPCLISRTVHKLTFQYTATEEPRLFVVRNAEYNGPILDGRLDVDSKRSLISITEISSNMCLKHAAELRQKNSKVMLSRKSSGAAAKEEEDCIPNTSDVEQAAGVSPSVPTKTTPKPKSFLPSLGLSMSKERVNGEAVEESPVKTKQGEETPETEEGAAPRVNV |  | 2 |
